# Patent US7608718B2, “4,5-dihydro-1H-pyrazole derivatives having potent CB1-antagonistic activity” (Solvay Pharmaceuticals B.V., priority 2001, dated 2009)
row,SMILES,melting point [°C]
1,"CNC(=NS(=O)(=O)N(C)C)N1CC(c2ccncc2)C(c2ccc(Cl)cc2)=N1 (stereo not shown) [Example 74, 3-(4-Chlorophenyl)-N′-((dimethylamino)sulfonyl)-N-methyl-4-(pyridin-4-yl)-4,5-dihydro-1H-pyrazole-1-carboxamidine]",178 to 182
2,"CCCNC(=NS(=O)(=O)N(C)C)N1CC(c2ccccc2)C(c2ccc(Cl)cc2)=N1 (stereo not shown) [Example 31, 3-(4-Chlorophenyl)-N′-((dimethylamino)sulfonyl)-N-propyl-4-phenyl-4,5-dihydro-1H-pyrazole-1-carboxamidine]",127 to 129
3,"CNC(=NS(=O)(=O)N1CCCCC1)N1CC(c2c(F)cccc2F)C(c2ccc(Cl)cc2)=N1 (stereo not shown) [Example 81, 3-(4-Chlorophenyl)-4-(2,6-difluorophenyl)-N-methyl-N′-((piperidin-1-yl)sulfonyl)-4,5-dihydro-1H-pyrazole-1-carboxamidine]",260 to 263
4,CSC(=NS(=O)(=O)N(C)C)N1CC(c2c(F)cccc2F)C(c2ccc(Cl)cc2)=N1 (stereo not shown),181 to 185
5,"CNC(=NS(=O)(=O)N(C)C)N1CC(c2c(F)cccc2F)C(c2ccc(Cl)cc2)=N1 (stereo not shown) [Example 80, 3-(4-Chlorophenyl)-4-(2,6-difluorophenyl)-N′-((dimethylamino)sulfonyl)-N-methyl-4,5-dihydro-1H-pyrazole-1-carboxamidine]",214 to 216
6,"CSC(=NS(=O)(=O)N1CCCCC1)N1CC(c2c(F)cccc2F)C(c2ccc(Cl)cc2)=N1 (stereo not shown) [Example 51, 3-(4-Chlorophenyl)-4-(2,6-difluorophenyl)-N-((piperidin-1-yl)sulfonyl)-4,5-dihydro-1H-pyrazole-1-carboximidothioic acid methyl ester]",221 to 225
7,"CCN(CC)S(=O)(=O)N=C(N(C)C)N1CC(O)(c2ccccc2)C(c2ccc(Cl)cc2)=N1 (stereo not shown) [Example 63, 3-(4-Chlorophenyl)-N′-((diethylamino)sulfonyl)-N,N-dimethyl-4-hydroxy-4-phenyl-4,5-dihydro-1H-pyrazole-1-carboxamidine]",135 to 137
8,"CSC(=NS(=O)(=O)N1CCC(N2CCCCC2)CC1)N1CC(c2ccccc2)C(c2ccc(Cl)cc2)=N1 (stereo not shown) [Example 97, 3-(4-Chlorophenyl)-N-(([1,4′]bipiperidin-1′-yl)sulfonyl)-4-phenyl-4,5-dihydro-1H-pyrazole-1-carboximidothioic acid methyl ester]",245
9,CCCN(C)S(=O)(=O)N=C(NC)N1CC(c2ccccc2)C(c2ccc(Cl)cc2)=N1 (stereo not shown),132 to 134
10,"CCCN(CCC)S(=O)(=O)N=C(NC)N1CC(c2ccccc2)C(c2ccc(Cl)cc2)=N1 (stereo not shown) [Example 26, 3-(4-Chlorophenyl)-N′-((dipropylamino)sulfonyl)-N-methyl-4-phenyl-4,5-dihydro-1H-pyrazole-1-carboxamidine]",141 to 142
11,"CN(C)S(=O)(=O)N=C(NCCO)N1CC(c2ccccc2)C(c2ccc(Cl)cc2)=N1 (stereo not shown) [Example 18, 3-(4-Chlorophenyl)-N′-((dimethylamino)sulfonyl)-N-(2-hydroxyethyl)-4-phenyl-4,5-dihydro-1H-pyrazole-1-carboxamidine]",123 to 126
12,"O=S(=O)(N=C(NC1CC1)N1CC(c2ccccc2)C(c2ccc(Cl)cc2)=N1)N1CCCCC1 (stereo not shown) [Example 56, 3-(4-Chlorophenyl)-N-cyclopropyl-4-phenyl-N′-((piperidin-1-yl)sulfonyl)-4,5-dihydro-1H-pyrazole-1-carboxamidine]",142 to 144
13,"CCN(CC)S(=O)(=O)N=C(NC)N1CC(c2ccncc2)C(c2ccc(Cl)cc2)=N1 (stereo not shown) [Example 71, N′-((Diethylamino)sulfonyl)-3-(4-chlorophenyl)-N-methyl-4-(pyridin-4-yl)-4,5-dihydro-1H-pyrazole-1-carboxamidine]",109 to 111
14,"CN(C)S(=O)(=O)N=C(NCCF)N1CC(c2ccccc2)C(c2ccc(Cl)cc2)=N1 (stereo not shown) [Example 32, 3-(4-Chlorophenyl)-N′-((dimethylamino)sulfonyl)-N-(2-fluoroethyl)-4-phenyl-4,5-dihydro-1H-pyrazole-1-carboxamidine]",128 to 131
15,"CNC(=NS(=O)(=O)N1CCCCC1)N1CC(c2cccc(F)c2)C(c2ccc(Cl)cc2)=N1 (stereo not shown) [Example 82, 3-(4-Chlorophenyl)-4-(3-fluorophenyl)-N-methyl-N′-((piperidin-1-yl)sulfonyl)-4,5-dihydro-1H-pyrazole-1-carboxamidine]",170
16,CCN(CC)S(=O)(=O)N=C(NC1CC1)N1CC(c2ccccc2)C(c2ccc(Cl)cc2)=N1 (stereo not shown),150 to 151
17,CCN(C)C(=NS(=O)(=O)N1CCCCC1)N1CC(c2ccccc2)C(c2ccc(Cl)cc2)=N1 (stereo not shown),178
18,CNC(=NS(=O)(=O)N1CCCCC1)N1CC(c2cccc(C(F)(F)F)c2)C(c2ccc(Cl)cc2)=N1 (stereo not shown),168 to 170
19,"CSC(=NS(=O)(=O)N1CCOCC1)N1CC(c2c(F)cccc2F)C(c2ccc(Cl)cc2)=N1 (stereo not shown) [Example 50, 3-(4-Chlorophenyl)-4-(2,6-difluorophenyl)-N-((morpholin-4-yl)sulfonyl)-4,5-dihydro-1H-pyrazole-1-carboximidothioic acid methyl ester]",231 to 233

row,SMILES,melting point [°C]
1,CSC(=NS(=O)(=O)N1CCCCC1)N1CC(c2ccccc2)C(c2ccc(Cl)cc2)=N1 (stereo not shown),192 to 194
2,"CNC(=NS(=O)(=O)N1CCOCC1)N1CC(c2c(F)cccc2F)C(c2ccc(Cl)cc2)=N1 (stereo not shown) [Example 79, 3-(4-Chlorophenyl)-4-(2,6-difluorophenyl)-N-methyl-N′-((morpholin-4-yl)sulfonyl)-4,5-dihydro-1H-pyrazole-1-carboxamidine]",223 to 235
3,CN(C)S(=O)(=O)N=C(NCC(F)(F)F)N1CC(c2ccccc2)C(c2ccc(Cl)cc2)=N1 (stereo not shown),158 to 159
4,"CCN(CC)S(=O)(=O)N=C(NC)N1CC(c2ccccc2)C(c2ccc(Cl)s2)=N1 (stereo not shown) [Example 58, 3-(5-Chlorothien-2-yl)-N′-((diethylamino)sulfonyl)-N-methyl-4-phenyl-4,5-dihydro-1H-pyrazole-1-carboxamidine]",122 to 123
5,CCN(c1ccccc1)S(=O)(=O)N=C(NC)N1CC(c2ccccc2)C(c2ccc(Cl)cc2)=N1 (stereo not shown),145 to 147
6,CCN(C)S(=O)(=O)N=C(NC)N1CC(c2cccnc2)C(c2ccc(Cl)cc2)=N1 (stereo not shown),125 to 128
7,"CCN(c1ccccc1)S(=O)(=O)N=C(SC)N1CC(c2ccccc2)C(c2ccc(Cl)cc2)=N1 (stereo not shown) [Example 39, 3-(4-Chlorophenyl)-N-(((ethyl)phenylamino)sulfonyl)-4-phenyl-4,5-dihydro-1H-pyrazole-1-carboximidothioic acid methyl ester]",143 to 146
8,"CCNC(=NS(=O)(=O)N(CC)CC)N1CC(O)(c2ccccc2)C(c2ccc(Cl)cc2)=N1 (stereo not shown) [Example 68, 3-(4-Chlorophenyl)-N′-((diethylamino)sulfonyl)-N-ethyl-4-hydroxy-4-phenyl-4,5-dihydro-1H-pyrazole-1-carboxamidine]",162 to 165
9,"CNC(=NS(=O)(=O)N(C)C)N1CC(c2cccnc2)C(c2ccc(Cl)cc2)=N1 (stereo not shown) [Example 72, 3-(4-Chlorophenyl)-N′-((dimethylamino)sulfonyl)-N-methyl-4-(pyridin-3-yl)-4,5-dihydro-1H-pyrazole-1-carboxamidine]",157 to 159
10,"CNC(=NS(=O)(=O)N1CCCCC1)N1CC(c2ccccc2F)C(c2ccc(Cl)cc2)=N1 (stereo not shown) [Example 83, 3-(4-Chlorophenyl)-4-(2-fluorophenyl)-N-methyl-N′-((piperidin-1-yl)sulfonyl)-4,5-dihydro-1H-pyrazole-1-carboxamidine]",223 to 225
11,"CCN(CCN(C)C)S(=O)(=O)N=C(SC)N1CC(c2ccccc2)C(c2ccc(Cl)cc2)=N1 (stereo not shown) [Example 95, 3-(4-Chlorophenyl)-N-(((2-(dimethylamino)ethyl)ethylamino)sulfonyl)-4-phenyl-4,5-dihydro-1H-pyrazole-1-carboximidothioic acid methyl ester]",158
12,"CSC(=NS(=O)(=O)N1CCS(=O)(=O)CC1)N1CC(c2ccccc2)C(c2ccc(Cl)cc2)=N1 (stereo not shown) [Example 53, 3-(4-Chlorophenyl)-N-((1,1-dioxidothiomorpholin-4-yl)sulfonyl)-4-phenyl-4,5-dihydro-1H-pyrazole-1-carboximidothioic acid methyl ester]",216 to 217
13,"CSC(=NS(=O)(=O)N1CCCCC1)N1CC(c2ccccc2F)C(c2ccc(Cl)cc2)=N1 (stereo not shown) [Example 48, 3-(4-Chlorophenyl)-4-(2-fluorophenyl)-N-((piperidin-1-yl)sulfonyl)-4,5-dihydro-1H-pyrazole-1-carboximidothioic acid methyl ester]",196 to 198
14,"CCN(C)S(=O)(=O)N=C(SC)N1CC(c2cccnc2)C(c2ccc(Cl)cc2)=N1 (stereo not shown) [Example 44, 3-(4-Chlorophenyl)-N-(((ethyl)methylamino)sulfonyl)-4-(pyridin-3-yl)-4,5-dihydro-1H-pyrazole-1-carboximidothioic acid methyl ester]",133 to 136
15,"CCN(CC)S(=O)(=O)N=C(NCCO)N1CC(c2ccccc2)C(c2ccc(Cl)cc2)=N1 (stereo not shown) [Example 3, 3-(4-Chlorophenyl)-N′-((diethylamino)sulfonyl)-N-(2-hydroxyethyl)-4-phenyl-4,5-dihydro-1H-pyrazole-1-carboxamidine]",104 to 106
16,"CSC(=NS(=O)(=O)N1CCCCC1)N1CC(c2cccnc2)C(c2ccc(Cl)cc2)=N1 (stereo not shown) [Example 45, 3-(4-Chlorophenyl)-N-((piperidin-1-yl)sulfonyl)-4-(pyridin-3-yl)-4,5-dihydro-1H-pyrazole-1-carboximidothioic acid methyl ester]",182 to 185
17,"CN1CCC(NC(=NS(=O)(=O)N(C)C)N2CC(c3ccccc3)C(c3ccc(Cl)cc3)=N2)CC1 (stereo not shown) [Example 60, 3-(4-Chlorophenyl)-N′-((dimethylamino)sulfonyl)-N-(1-methylpiperidin-4-yl)-4-phenyl-4,5-dihydro-1H-pyrazole-1-carboxamidine]",144 to 146
18,"CNC(=NS(=O)(=O)N1CCC(O)CC1)N1CC(c2ccccc2)C(c2ccc(Cl)cc2)=N1 (stereo not shown) [Example 88, 3-(4-Chlorophenyl)-N′-((4-hydroxypiperidin-1-yl)sulfonyl)-N-methyl-4-phenyl-4,5-dihydro-1H-pyrazole-1-carboxamidine]",80
